# Target: Factor D (Homo sapiens, UniProt P00746)
# Assay: Factor D esterolytic assay (Z-Lys-SBzl thioester substrate, DTNB, 405 nm)
# Type: biochemical
# Conditions: substrate Z-Lys-SBzl 1.29 mM, 100 mM HEPES, 500 mM NaCl, pH 7.5, 10% DMSO, tested a minimum of three times
# Procedure, shortened: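 Run in pH 7.5 HEPES (100 mM) with 500 mM NaCl and 10% DMSO, with compound preincubated at room temperature or not before adding 1.29 mM Z-Lys-SBzl. Free thiol released by Factor D reacts with DTNB, and rate is followed at 405 nm minus 690 nm over 600 s. IC50 derives from rate-based inhibition, minimum three replicates.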
# Sequence of Factor D (P00746 26-253): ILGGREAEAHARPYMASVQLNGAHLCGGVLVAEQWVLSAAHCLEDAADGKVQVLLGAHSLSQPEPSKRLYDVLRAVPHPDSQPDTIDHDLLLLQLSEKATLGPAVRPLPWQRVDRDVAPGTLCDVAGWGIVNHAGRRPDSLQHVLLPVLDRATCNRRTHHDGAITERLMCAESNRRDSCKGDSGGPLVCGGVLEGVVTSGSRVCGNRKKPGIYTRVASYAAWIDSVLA
row,Compound,IC50 [µM]
1,"Nc1cccc2c1ccn2CC(=O)N1[C@@H]2C[C@@H]2C[C@H]1C(=O)Nc1cccc(Br)n1 [Compound 85b, (1R,3S,5R)-2-(2-(4-amino-1H-indol-1-yl)acetyl)-N-(6-bromopyridin-2-yl)-2-azabicyclo[3.1.0]hexane-3-carboxamide]",> 1
2,"C[C@H](NC(=O)[C@@H]1C[C@H]2C[C@H]2N1C(=O)Cn1ccc2c(N)ncnc21)c1cccc(Cl)c1F [Compound 86b, (1R,3S,5R)-2-(2-(4-amino-7H-pyrrolo[2,3-d]pyrimidin-7-yl)acetyl)-N—((S)-1-(3-chloro-2-fluorophenyl)ethyl)-2-azabicyclo[3.1.0]hexane-3-carboxamide]",0.1 to 1
3,"Nc1nc(N)c2ccn(CC(=O)N3[C@@H]4C[C@@H]4C[C@H]3C(=O)Nc3cccc(Br)n3)c2n1 [Compound 87f, (1R,3S,5R)—N-(6-bromopyridin-2-yl)-2-(2-(2,4-diamino-7H-pyrrolo[2,3-d]pyrimidin-7-yl)acetyl)-2-azabicyclo[3.1.0]hexane-3-carboxamide]",> 1
4,"Nc1nccc2c1ccn2CC(=O)N1[C@@H]2C[C@@H]2C[C@H]1C(=O)NCc1cccc(Cl)c1F [Compound 88f, (1R,3S,5R)-2-(2-(4-amino-1H-pyrrolo[3,2-c]pyridin-1-yl)acetyl)-N-(3-chloro-2-fluorobenzyl)-2-azabicyclo[3.1.0]hexane-3-carboxamide]",> 1
5,"Nc1ncc2ncn(CC(=O)N3[C@@H]4C[C@@H]4C[C@H]3C(=O)Nc3cccc(Br)n3)c2n1 [Compound 89b, (1R,3S,5R)-2-(2-(2-amino-9H-purin-9-yl)acetyl)-N-(6-bromopyridin-2-yl)-2-azabicyclo[3.1.0]hexane-3-carboxamide]",0.1 to 1
6,"Nc1nc(Cl)nc2c1ccn2CC(=O)N1[C@@H]2C[C@@H]2C[C@H]1C(=O)Nc1cccc(Br)n1 [Compound 90d, (1R,3S,5R)-2-(2-(4-amino-2-chloro-7H-pyrrolo[2,3-d]pyrimidin-7-yl)acetyl)-N-(6-bromopyridin-2-yl)-2-azabicyclo[3.1.0]hexane-3-carboxamide]",> 1
7,"Nc1ncnc2c1ncn2CC(=O)N1[C@@H]2C[C@@H]2C[C@H]1C(=O)NCc1cccc(Cl)c1F [Compound 91a, (1R,3S,5R)-2-(2-(6-amino-9H-purin-9-yl)acetyl)-N-(3-chloro-2-fluorobenzyl)-2-azabicyclo[3.1.0]hexane-3-carboxamide]",< 0.1
8,"Nc1nc(N)c2ncn(CC(=O)N3[C@@H]4C[C@@H]4C[C@H]3C(=O)Nc3cccc(Br)n3)c2n1 [Compound 92b, (1R,3S,5R)—N-(6-bromopyridin-2-yl)-2-(2-(2,6-diamino-9H-purin-9-yl)acetyl)-2-azabicyclo[3.1.0]hexane-3-carboxamide]",> 1
9,"Nc1ncnc2c1ncn2CC(=O)N1C[C@H](F)C[C@H]1C(=O)Nc1cccc(Br)n1 [Compound 93a, (2S,4R)-1-(2-(6-amino-9H-purin-9-yl)acetyl)-N-(6-bromopyridin-2-yl)-4-fluoropyrrolidine-2-carboxamide]",0.1 to 1
10,"Nc1ncnc2c1ncn2CC(=O)N1[C@@H]2C[C@@H]2C[C@H]1C(=O)OCc1ccccc1 [Compound 94b, (1R,3S,5R)-benzyl 2-(2-(6-amino-9H-purin-9-yl)acetyl)-2-azabicyclo[3.1.0]hexane-3-carboxylate]",> 1
11,"CC(C)(C)CCNC(=O)[C@@H]1C[C@H]2C[C@H]2N1C(=O)Cn1cnc2c(N)ncnc21 [Compound 95c, (1R,3S,5R)-2-(2-(6-amino-9H-purin-9-yl)acetyl)-N-(3,3-dimethylbutyl)-2-azabicyclo[3.1.0]hexane-3-carboxamide]",> 1
12,"CN(C)c1nc(N)c2ncn(CC(=O)N3[C@@H]4C[C@@H]4C[C@H]3C(=O)NCc3cccc(Cl)c3F)c2n1 [Compound 96e, (1R,3S,5R)-2-(2-(6-amino-2-(dimethylamino)-9H-purin-9-yl)acetyl)-N-(3-chloro-2-fluorobenzyl)-2-azabicyclo[3.1.0]hexane-3-carboxamide]",> 1
13,"CC1(C)CCCC(NC(=O)[C@@H]2C[C@H]3C[C@H]3N2C(=O)Cn2cnc3c(N)ncnc32)C1 (stereo partly drawn) [Compound 97b, (1R,3S,5R)-2-(2-(6-amino-9H-purin-9-yl)acetyl)-N-(3,3-dimethylcyclohexyl)-2-azabicyclo[3.1.0]hexane-3-carboxamide]",> 1
14,"Nc1ncnc2c1ncn2CC(=O)N1[C@@H]2C[C@@H]2C[C@H]1C(=O)N[C@@H]1C[C@H]1c1ccccc1Cl [Compound 98b, (1R,3S,5R)-2-(2-(6-amino-9H-purin-9-yl)acetyl)-N-((1R,2S)-2-(2-chlorophenyl)cyclopropyl)-2-azabicyclo[3.1.0]hexane-3-carboxamide]",0.1 to 1
15,"Nc1ncnc2c1ncn2CC(=O)N1[C@@H]2C[C@@H]2C[C@H]1C(=O)NCCOC(F)(F)F [Compound 99b, (1R,3S,5R)-2-(2-(6-amino-9H-purin-9-yl)acetyl)-N-(2-(trifluoromethoxy)ethyl)-2-azabicyclo[3.1.0]hexane-3-carboxamide]",> 1
16,"CC1CC(CNC(=O)[C@@H]2C[C@H]3C[C@H]3N2C(=O)Cn2cnc3c(N)ncnc32)C1 (stereo partly drawn) [Compound 100b, (1R,3S,5R)-2-(2-(6-amino-9H-purin-9-yl)acetyl)-N-((3-methylcyclobutyl)methyl)-2-azabicyclo[3.1.0]hexane-3-carboxamide]",> 1
17,"Nc1ncnc2c1ncn2CC(=O)N1[C@@H]2C[C@@H]2C[C@H]1C(=O)NCc1ccccc1 [Compound 101b, (1R,3S,5R)-2-(2-(6-amino-9H-purin-9-yl)acetyl)-N-benzyl-2-azabicyclo[3.1.0]hexane-3-carboxamide]",0.1 to 1
18,"Nc1ncnc2c1ncn2CC(=O)N1[C@@H]2C[C@@H]2C[C@H]1C(=O)NC1CCCC(Cl)(Cl)C1 (stereo partly drawn) [Compound 102b, (1R,3S,5R)-2-(2-(6-amino-9H-purin-9-yl)acetyl)-N-(3,3-dichlorocyclohexyl)-2-azabicyclo[3.1.0]hexane-3-carboxamide]",0.1 to 1
19,"Nc1ncnc2c1ncn2CC(=O)N1[C@@H]2C[C@@H]2C[C@H]1C(=O)NCC1CC1(Cl)Cl (stereo partly drawn) [Compound 103b, (1R,3S,5R)-2-(2-(6-amino-9H-purin-9-yl)acetyl)-N-((2,2-dichlorocyclopropyl)methyl)-2-azabicyclo[3.1.0]hexane-3-carboxamide]",0.1 to 1
20,"Nc1ncnc2c1ncn2CC(=O)N1C[C@H](F)C[C@H]1C(=O)NCc1cccc(Cl)c1F [Compound 104a, (2S,4R)-1-(2-(6-amino-9H-purin-9-yl)acetyl)-N-(3-chloro-2-fluorobenzyl)-4-fluoropyrrolidine-2-carboxamide]",< 0.1
21,"Nc1ncnc2c1ncn2CC(=O)N1CCS[C@H]1C(=O)NCc1cccc(Cl)c1F [Compound 105b, (S)-3-(2-(6-amino-9H-purin-9-yl)acetyl)-N-(3-chloro-2-fluorobenzyl)thiazolidine-2-carboxamide]",0.1 to 1
22,"Nc1ncnc2c1ncn2CC(=O)N1[C@@H]2C[C@@H]2C[C@H]1C(=O)Nc1cccc(OC(F)(F)F)c1 [Compound 107b, (1R,3S,5R)-2-(2-(6-amino-9H-purin-9-yl)acetyl)-N-(3-(trifluoromethoxy)phenyl)-2-azabicyclo[3.1.0]hexane-3-carboxamide]",> 1
23,"COc1cccc(NC(=O)[C@@H]2C[C@H]3C[C@H]3N2C(=O)Cn2cnc3c(N)ncnc32)c1F [Compound 108b, (1R,3S,5R)-2-(2-(6-amino-9H-purin-9-yl)acetyl)-N-(2-fluoro-3-methoxyphenyl)-2-azabicyclo[3.1.0]hexane-3-carboxamide]",> 1
